Results from US8501961B2, “HIV protease inhibitors and methods for using” (priority 2008, dated 2013).

Tests used:
HIV-1 protease = HIV-1 protease (Human immunodeficiency virus type 1 group M subtype B (isolate HXB2) (HIV-1), UniProt P04585); experiment: HIV-1 protease enzyme inhibitory assay (protocol of Toth and Marshall); type: biochemical; conditions: for fold reduction in enzymatic inhibitory potency with respect to 3d: vs 3d; for potency compared to 3i: vs 3i
Source text: In another embodiment, inhibitors described herein contain a (R)-hydroxyethylamine sulfonamide isostere with a p-methoxysulfonamide as the P2′-ligand and various designed cyclic ethers and polyethers as the P2-ligands. In another embodiment, assays are described herein for evaluating compounds. Illustrative inhibitors described herein are initially evaluated in an enzyme inhibitory assay utilizing a protocol described by Toth and Marshall (Toth, M. V.; Marshall, G. R. A simple, continuous fluorometric assay for HIV protease. Int. J. Pep. Protein Res. 1990, 36, 544-550). […]

HIV-1-LAI = experiment: Antiviral assay in MT-2 cells, inhibition of HIV-1-elicited cytopathic effect; type: cell-based; conditions: Human immunodeficiency virus 1, T-lymphoid, MT-2 human T-lymphoid cells exposed to HIV-1-LAI
[1] = Table 1, mean values of at least four determinations
[2] = Table 3, means of at least two experiments

Structure (SMILES) | Ki (HIV-1 protease; [1]) [nM] | potency compared to 3i (HIV-1 protease) | IC50 (HIV-1-LAI) [nM] | other results
COc1ccc(S(=O)(=O)N(CC(C)C)C[C@@H](O)[C@H](Cc2ccccc2)NC(=O)O[C@H]2CCCOCOC2)cc1 [Inhibitor 3a, (1S,2R)-{1-Benzyl-2-hydroxy-3-[isobutyl(4-methoxybenzenesulfonyl)amino]propyl}carbamic acid (1S)-3,5-dioxacyclooctan-1-yl ester] | 0.15 ± 0.019 |  |  | 
COc1ccc(S(=O)(=O)N(CC(C)C)C[C@@H](O)[C@H](Cc2ccccc2)NC(=O)O[C@@H]2CCCCOC2)cc1 [Inhibitor 3e, (1S,2R)-{1-Benzyl-2-hydroxy-3-[isobutyl(4-methoxybenzenesulfonyl)amino]propyl}carbamic acid (R)-oxepan-3-yl ester] | 0.81 ± 0.12 |  |  | fold reduction in enzymatic inhibitory potency with respect to 3d (HIV-1 protease): ~30 fold
COc1ccc(S(=O)(=O)N(CC(C)C)C[C@@H](O)[C@H](Cc2ccccc2)NC(=O)O[C@H]2CCCOCC2)cc1 [Inhibitor 3f, (1S,2R)-{1-Benzyl-2-hydroxy-3-[isobutyl(4-methoxybenzenesulfonyl)amino]propyl}carbamic acid (S)-oxepan-4-yl ester] | 0.74 ± 0.15 |  |  | fold reduction in enzymatic inhibitory potency with respect to 3d (HIV-1 protease): ~30 fold
COc1ccc(S(=O)(=O)N(CC(C)C)C[C@@H](O)[C@H](Cc2ccccc2)NC(=O)OC2CCCCCC2)cc1 [Inhibitor 3g, (1S,2R)-{1-Benzyl-2-hydroxy-3-[isobutyl(4-methoxybenzenesulfonyl)amino]propyl}carbamic acid Cycloheptanyl ester] | 27 ± 0.81 |  |  | 
COc1ccc(S(=O)(=O)N(CC(C)C)C[C@@H](O)[C@H](Cc2ccccc2)NC(=O)OC2COCCOCCOCCOC2)cc1 [Inhibitor 3j, (1S,2R)-{1-Benzyl-2-hydroxy-3-[isobutyl(4-methoxybenzenesulfonyl)amino]propyl}carbamic acid 3,6,9,12-tetraoxacyclotridecan-1-yl ester] | 33 ± 1.9 |  |  | 
COc1ccc(S(=O)(=O)N(CC(C)C)C[C@@H](O)[C@H](Cc2ccccc2)NC(=O)OC2COCCOCOCCOC2)cc1 [Inhibitor 3k, (1S,2R)-{1-Benzyl-2-hydroxy-3-[isobutyl(4-methoxybenzenesulfonyl)amino]propyl}carbamic acid 3,6,8,11-tetraoxacyclododecan-1-yl ester] | 6.3 ± 0.57 | more than 2 fold | > 1000 | fold potency enhancement compared to inhibitor 3j (HIV-1 protease; vs 3j): 5 fold
COc1ccc(S(=O)(=O)N(CC(C)C)C[C@@H](O)[C@H](Cc2ccccc2)NC(=O)OC2COCCS(=O)(=O)CCOC2)cc1 [Inhibitor 3l, (1S,2R)-{1-Benzyl-2-hydroxy-3-[isobutyl(4-methoxybenzenesulfonyl)amino]propyl}carbamic acid 3,9-dioxa-6-thiacyclodecan-1-yl 6,6-dioxide ester] | 1.9 ± 0.2 | 9 fold | > 1000 | 
COc1ccc(S(=O)(=O)N(CC(C)C)C[C@@H](O)[C@H](Cc2ccccc2)NC(=O)OC2COCCN(C)CCOC2)cc1 [Inhibitor 3m, (1S,2R)-{1-Benzyl-2-hydroxy-3-[isobutyl(4-methoxybenzenesulfonyl)amino]propyl}carbamic acid N-methyl-1,7-dioxa-4-azocyclodecan-9-yl ester] | 19 ± 0.76 | no change in inhibitory activity | > 1000 | 
COc1ccc(S(=O)(=O)N(CC(C)C)C[C@@H](O)[C@H](Cc2ccccc2)NC(=O)O[C@H]2CC3OCO[C@@H]3C2)cc1 (stereo partly drawn) [Inhibitor 126, (1′S,2′R)-{1′-Benzyl-2′-hydroxy-3′-[isobutyl(4-methoxybenzenesulfonyl)amino]propyl} carbamic acid (1β,2β,4α)-1,2-(methylenedioxy)cyclopent-4-yl ester] |  |  |  | Ki (HIV-1 protease; [2]): 0.4 ± 0.04 nM; fold less potent than the syn isomer 102 (HIV-1 protease; vs 102): 3.5 fold
COc1ccc(S(=O)(=O)N(CC(C)C)C[C@@H](O)[C@H](Cc2ccccc2)NC(=O)O[C@H]2CC3OCCO[C@@H]3C2)cc1 (stereo partly drawn) [Inhibitor 129, (1′S,2′R)-{1′-Benzyl-2′-hydroxy-3′-[isobutyl(4-methoxybenzenesulfonyl)amino]propyl} carbamic acid (1β,2β,4α)-1,2-(ethylenedioxy)cyclopent-4-yl ester] |  |  |  | Ki (HIV-1 protease; [2]): 0.5 ± 0.04 nM
